Assay results from US7875619B2, “Hetero substituted sodium channel blockers” (Parion Sciences, Inc., priority 2004, dated 2011).
Counter-ions that a name gives are not always drawn.

Experiments:
[1] = molecular target: T1, sodium channel (ENaC), canine bronchial epithelia (Canis lupus familiaris, UniProt A0A8I3MKE6+A0A8I3Q679+Q95165); assay: In vitro measure of sodium channel blocking activity: inhibition of short circuit current (ISC) in airway epithelial monolayers in Ussing chambers; type: cell-based; conditions: mean of N runs; for Fold Amiloride** (PSA 4022 = 100) Mean: relative potency for PSA 4022 = 100 using EC50 from PSA 4022 in same run
T1 construct: endogenous in cells; host or cells: primary canine bronchial epithelial cells cultured at air-liquid interface, mounted in Ussing chambers
T1 sequence (A0A8I3Q679 1-649): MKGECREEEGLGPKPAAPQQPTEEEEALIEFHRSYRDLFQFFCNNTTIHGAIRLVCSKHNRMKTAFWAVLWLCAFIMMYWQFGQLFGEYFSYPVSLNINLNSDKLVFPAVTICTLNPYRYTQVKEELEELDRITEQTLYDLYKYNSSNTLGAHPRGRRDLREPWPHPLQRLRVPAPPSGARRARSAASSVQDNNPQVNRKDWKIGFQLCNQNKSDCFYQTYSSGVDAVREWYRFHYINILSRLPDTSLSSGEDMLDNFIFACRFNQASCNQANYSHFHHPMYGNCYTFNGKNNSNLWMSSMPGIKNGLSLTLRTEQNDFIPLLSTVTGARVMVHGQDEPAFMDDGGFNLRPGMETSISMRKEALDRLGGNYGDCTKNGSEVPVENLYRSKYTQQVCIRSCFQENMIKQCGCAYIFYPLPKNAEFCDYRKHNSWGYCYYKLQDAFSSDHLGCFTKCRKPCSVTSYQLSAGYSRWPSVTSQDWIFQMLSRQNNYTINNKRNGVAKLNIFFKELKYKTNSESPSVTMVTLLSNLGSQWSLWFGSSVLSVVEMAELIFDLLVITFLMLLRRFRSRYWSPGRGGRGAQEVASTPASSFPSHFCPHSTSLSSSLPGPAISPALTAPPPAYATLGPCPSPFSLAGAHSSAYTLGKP
T1 sequence (Q95165 1-641): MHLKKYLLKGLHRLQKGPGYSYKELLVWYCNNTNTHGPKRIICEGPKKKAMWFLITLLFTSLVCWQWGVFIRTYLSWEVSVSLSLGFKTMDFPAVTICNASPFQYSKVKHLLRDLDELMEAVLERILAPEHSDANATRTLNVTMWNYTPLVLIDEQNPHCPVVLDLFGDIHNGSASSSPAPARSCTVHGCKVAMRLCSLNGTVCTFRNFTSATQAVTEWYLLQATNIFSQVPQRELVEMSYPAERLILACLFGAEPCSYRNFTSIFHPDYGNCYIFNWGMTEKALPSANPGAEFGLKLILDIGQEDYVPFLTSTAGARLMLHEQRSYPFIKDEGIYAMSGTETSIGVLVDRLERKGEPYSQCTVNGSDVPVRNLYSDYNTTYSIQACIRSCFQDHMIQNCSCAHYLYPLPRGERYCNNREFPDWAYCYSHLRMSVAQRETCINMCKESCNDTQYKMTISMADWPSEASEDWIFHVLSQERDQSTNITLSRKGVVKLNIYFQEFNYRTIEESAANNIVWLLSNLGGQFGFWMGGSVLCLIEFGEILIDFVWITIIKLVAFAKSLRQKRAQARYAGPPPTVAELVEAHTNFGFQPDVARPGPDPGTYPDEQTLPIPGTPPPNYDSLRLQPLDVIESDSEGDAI
T1 sequence (A0A8I3MKE6 1-646): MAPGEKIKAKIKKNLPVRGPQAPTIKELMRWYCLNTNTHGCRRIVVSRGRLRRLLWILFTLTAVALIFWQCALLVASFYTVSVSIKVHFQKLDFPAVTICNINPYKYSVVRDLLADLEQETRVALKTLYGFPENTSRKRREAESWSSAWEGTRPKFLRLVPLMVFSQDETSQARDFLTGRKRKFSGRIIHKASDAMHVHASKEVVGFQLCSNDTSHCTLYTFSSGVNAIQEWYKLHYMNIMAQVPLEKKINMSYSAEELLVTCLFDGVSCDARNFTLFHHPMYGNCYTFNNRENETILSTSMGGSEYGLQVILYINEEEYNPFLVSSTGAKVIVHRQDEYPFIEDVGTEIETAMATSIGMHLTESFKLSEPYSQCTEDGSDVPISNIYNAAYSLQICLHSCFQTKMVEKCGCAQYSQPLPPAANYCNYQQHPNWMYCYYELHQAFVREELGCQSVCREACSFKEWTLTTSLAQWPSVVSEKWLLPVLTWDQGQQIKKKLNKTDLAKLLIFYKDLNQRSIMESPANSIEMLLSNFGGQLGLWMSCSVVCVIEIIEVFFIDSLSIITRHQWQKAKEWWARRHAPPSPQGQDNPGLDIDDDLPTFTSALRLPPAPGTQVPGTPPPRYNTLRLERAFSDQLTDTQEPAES
Procedure: One assay used to assess mechanism of action and/or potency of the compounds of the present invention involves the determination of lumenal drug inhibition of airway epithelial sodium currents measured under short circuit current (ISC) using airway epithelial monolayers mounted in Ussing chambers. Cells obtained from freshly excised human, dog, sheep or rodent airways are seeded onto porous 0.4 micron Snapwell™ Inserts (CoStar), cultured at air-liquid interface (ALI) conditions in hormonally defined media, and assayed for sodium transport activity (ISC) while bathed in Krebs Bicarbonate Ringer (KBR) in Using chambers. All test drug additions are to the lumenal bath with half-log dose addition protocols (from 1×10^−11 M to 3×10^−5M), and the cumulative change in ISC (inhibition) recorded. All drugs are prepared in dimethyl sulfoxide as stock solutions at a concentration of 1×10^−2 M and stored at −20° C. […] After the maximal concentration (5×10^−5 M) is administered, the lumenal bath is exchanged three times with fresh drug-free KBR solution, and the resultant ISC measured after each wash for approximately 5 minutes in duration. Reversibility is defined as the percent return to the baseline value for sodium current after the third wash. All data from the voltage clamps are collected via a computer interface and analyzed off-line.
Dose-effect relationships for all compounds are considered and analyzed by the Prism 3.0 program.
PSA 4022 was also tested in each assay as a positive control.

melting point	EC50 [1]	Fold Amiloride** (PSA 4022 = 100) Mean [1]	SMILES
160 °C	–	–	N=C(NCCCCc1ccc(OCCNCC(N)C(N)=O)cc1)NC(=O)c1nc(Cl)c(N)nc1N (stereo not shown) (as salt: hydrochloride) [PSA 18704, 2-amino-3-[2-(4-{4-[N′-(3,5-diamino-6-chloropyrazine-2-carbonyl)-guanidino]butyl}phenoxy)ethylamino]propionamide tri-hydrochloride]
190 to 192 °C (dec.)	17 nM	43.3	N=C(NCCCCc1ccc(CCC[C@@H](N)C(=O)O)cc1)NC(=O)c1nc(Cl)c(N)nc1N [PSA 23184, 2-(R)-amino-5-(4-{4-[N′-(3,5-diamino-6-chloropyrazine-2-carbonyl)-guanidino]butyl}phenyl)pentanoic acid]
88 to 90 °C	–	–	COC(=O)C(N)CCOc1ccc(CCCCNC(=N)NC(=O)c2nc(Cl)c(N)nc2N)cc1 (stereo not shown) (as salt: hydrochloride) [PSA 17587, 2-amino-4-(4-{4-[N′-(3,5-diamino-6-chloropyrazine-2-carbonyl)-guanidino]butyl}phenoxy)butyric acid methyl ester hydrochloride]
–	32.1 nM	30.0	N=C(NCCCCc1ccc(OC[C@H](N)C(=O)O)cc1)NC(=O)c1nc(Cl)c(N)nc1N (stereo in doubt) [PSA 10941, 2-amino-3-(4-{4-[N′-(3,5-diamino-6-chloropyrazine-2-carbonyl)-guanidino]butyl}phenoxy)propionic acid]
–	5.82 nM	136	N=C(NCCCCc1ccc(C(=O)NCCN)cc1)NC(=O)c1nc(Cl)c(N)nc1N [PSA 11698, 4-{4-[N-(3,5-diamino-6-chloropyrazine-2-carbonyl)guanidino]butyl}-N-(2-aminoethyl)benzamide hydrochloride]
178 to 180 °C	29.3 nM	34.8	N=C(NCCCCc1ccc(OCCC(N)C(=O)O)cc1)NC(=O)c1nc(Cl)c(N)nc1N (stereo not shown) [PSA 17666, 2-amino-4-(4-{4-[N′-(3,5-diamino-6-chloropyrazine-2-carbonyl)-guanidino]butyl}phenoxy)butyric acid]
–	4.7 nM	145	N=C(NCCCCc1ccc(SCCC(N)=O)cc1)NC(=O)c1nc(Cl)c(N)nc1N [PSA 19605, 3-(4-{4-[N′-(3,5-diamino-6-chloropyrazine-2-carbonyl)guanidino]butyl}phenylthio)propionamide]
–	32.4 nM	24.7	N=C(NCCCCc1ccc(NCCN(C[C@H](O)[C@H](O)CO)C[C@H](O)[C@H](O)CO)cc1)NC(=O)c1nc(Cl)c(N)nc1N [PSA 17218, N-[4-(4-{2-[bis-((2S,3R)-2,3,4-trihydroxybutyl)amino]ethylamino}phenyl)butyl]-N′-(3,5-diamino-6-chloropyrazine-2-carbonyl)guanidine trihydrochloride]
76 to 79 °C	32.3 nM	39.4	COC(=O)[C@H](N)CCCc1ccc(CCCCNC(=N)NC(=O)c2nc(Cl)c(N)nc2N)cc1 [PSA 19603, 2-(R)-amino-5-(4-{4-[N′-(3,5-diamino-6-chloropyrazine-2-carbonyl)-guanidino]butyl}phenyl)pentanoic acid methyl ester]
